Experimental data reported in patent publication US20150141375A1 (priority 2009, published 2015).
Entries after “also recorded” stand apart in the source; their conditions may differ.

Key:
BKV(Dunlop) = details: RPTECs, same test system (Bernhoff et al., 2008), cited from earlier work
HSV-2 = test: In vitro efficacy against HSV-2 strains in HFF (CPE, plaque reduction); assay type: cell-based
Description: In vitro screening by CPE assay in human foreskin fibroblast (HFF) cells with confirmation using plaque reduction assays in HFF.

[1] = Vistide 5 mg/kg with probenecid; cited from earlier work
SVG cells = test: SVG cell viability / cell number (MTS, alamar blue, hematoxylin); assay type: cell-based, human
Experimental: Quantification of cell viability using the MTS [3-(4,5-dimethylthiazol-2-yl)-5-(3-carboxymethoxyphenyl)-2-(4-sulfophenyl)-2H-tetrazolium] assay is based on bioactivity of mitochondrial dehydrogenase in living cells, which converts colorless tetrazolium salt to a colored formazan. MTS assays were performed according to manufacturer's instructions (Promega, Madison Wis.). Briefly, culture medium was removed from cells and 50 μL of PBS was added into each well of a 96 well plate. Ten μL of MTS reagent were added to wells of cells, and to a well without cells to determine background. Mixtures were incubated at 37° C. for 2 hours and the absorbance was measured at 490 nm. Trypan blue staining was performed on identical cultures to correlate MTS values with cell viability. The final values indicated are the result from 3 replicates. The value for the non-treated control was set to 100% and all other values are represented as a percentage of the control. Alamar blue (AB) assay.
Quantification of cell viability using the alamar blue (AB) assay was performed according to the manufacturer's instructions (Invitrogen, Gaithersburg, Md.). Briefly, 10 μL of AB reagent was added to each well of a 96 well dish containing cells or without cells to determine background. Mixtures were incubated at 37° C. for 6 hours and the absorbance measured at 570 nm using 600 nm as a reference wavelength. The value for the non-treated control was set to 100% and all other values are represented as a percentage of the control.
Because cell density in cultures processed for in situ DNA hybridization could not be measured by MTS or AB assays, cell density was approximated in cell cultures processed by quantifying hematoxylin staining intensity. Coverslips containing cells were prepared for in situ DNA hybridization and co-stained with hematoxylin. Subsequently, each coverslip was scanned and the hematoxylin intensities quantified using ImageJ. To determine the total cell number per coverslip, images were acquired at 10 random positions at 100× magnification. Cells were counted throughout each image and the average cell number per slide was generated by averaging counts from the 10 images for each experimental group. Exactly 900 images at 100× magnification cover the surface of an 18 mm×18 mm coverslip.

Vaccinia Virus = test: microbe, parasite or virus in culture; assay type: cell-based; details: Orthopoxvirus vaccinia, HFF
Variola major = test: organism not typed; assay type: cell-based; details: Vero 76
Adenovirus = test: In vitro activity against Adenovirus (HFF; AdV 5); assay type: cell-based; details: unidentified adenovirus
HSV-1 [2] = test: In vitro potency against dsDNA viruses: HSV-1; assay type: cell-based; details: Human alphaherpesvirus 1, MRC5; MRC-5
PK comparison, rabbit = details: in vivo, 2 mg/kg, calculated from doses of 5 and 10 mg/kg, analyte = label, after CMX001
Description: (§1) Table 4 illustrates the PK comparison of CMX001 with CMX021 and CMX064 for mouse, rabbit and human.

[3] = Safety and pharmacokinetics of CMX001 in healthy volunteers; assay type: in vivo, human; details: blood, Human, analyte = label
Experimental: An initial study was conducted to evaluate the safety and pharmacokinetics of CMX001 in healthy volunteers. The study consisted of a single dose arm (SD) and a multiple dose arm (MD). In the single dose arm 7 cohorts of 6 subjects were treated (4 subjects received active drug and 2 placebo). Enrollment was staggered as 2 subjects (one active, one placebo) followed by 4 subjects (Groups A and B). The estimated single doses for the two highest doses treated for a […] subject were 40 mg (0.6 mg/kg cohort 6) and 70 mg (1 mg/kg cohort 7). In the multiple dose arm, cohort 6MD received 0.1 mg/kg on Day 0, 6 and 12; Cohort 7MD received 0.2 mg/kg on Day 0, 6 and 12. Levels of cidofovir, CMX001 and CMX064 (major metabolite) were measured in blood and urine of subjects during the course of the study. Gastrointestinal (GI) monitoring of the subjects included (a) monitoring for clinical signs of GI adverse events, (b) monitoring for clinical symptoms using a visual Analog Scale, (c) monitoring for appetite loss/anorexia, nausea, vomiting, diarrhea, constipation and intestinal gas/bloating, (d) laboratory tests for fecal occult blood; serum electrolytes, urine specific gravity, BUN/creatinine ratio; serum albumin, and lipids, and (e) diagnostic studies (the Wireless capsule endoscopy (PillCam®, Given Imaging)).

CMV = details: person with renal failure, all observed time points after CMX001
HCMV (AD169) = test: HCMV real time array of viral transcripts; assay type: cell-based; details: CDV 50 μM, GCV 15 μM, CMX001 0.5 μM; ANOVA P<0.05
HHV-6 = test: In vitro potency against dsDNA viruses: HHV-6; assay type: cell-based; details: HSB2; HSB-2
EBV = test: In vitro potency against dsDNA viruses: EBV; assay type: cell-based; details: human gammaherpesvirus 4; Dardi
HCMV(AD169) = test: In vitro potency against dsDNA viruses: HCMV; assay type: cell-based; details: Human betaherpesvirus 5, AD169, MRC5; MRC-5
HPV 18 = test: In vitro potency against dsDNA viruses: HPV 18; assay type: cell-based; details: HeLa
JC = test: In vitro potency against dsDNA viruses: JC; assay type: cell-based, JC virus; details: JC polyomavirus
BK Virus = test: In vitro potency against BK Virus in WI-38 cells; assay type: cell-based; details: Betapolyomavirus hominis, WI-38
PK comparison, mouse = assay type: in vivo; details: 2 mg/kg, calculated from doses of 2 and 10 mg/kg, analyte = label, after CMX001
Description: as §1

HSV-1 [4] = test: microbe, parasite or virus in culture; assay type: cell-based
HPV 11 = test: In vitro potency against dsDNA viruses: HPV 11; assay type: cell-based; details: A-431; A431
Mad-4 JCV = test: JCV (Mad-4) initial infection of SVG cells (in situ DNA hybridization, qPCR)

Q: For `Nc1ccn(C[C@@H](CO)OCP(=O)(O)O)c(=O)n1` [Cidofovir, cidofovir, reference compound], which “IC-90 of CDV, BKV replication” value (BKV(Dunlop)) is on record?
A: Its value is 40 µg/mL.

Q: What about the IC90 (BKV(Dunlop); read-out: IC-90 of CDV, BKV replication) of the same molecule?
A: The IC90 was 127 µM.

Q: What about the EC50 (HSV-2; Human alphaherpesvirus 2, strain G) of the same molecule?
A: The EC50 was 5.5 ± 2.1 µM.

Q: What about the EC50 (HSV-2; Human alphaherpesvirus 2, strain MS) of the same molecule?
A: Its EC50 is 5.1 ± 5.4 µM.

Q: What about the EC50 (HSV-2; Human alphaherpesvirus 2, strain SR) of the same molecule?
A: Its EC50 is 5.9 ± 5.9 µM.

Q: What about the “peak plasma concentrations of cidofovir” value [1] of the same molecule?
A: The value was 19,600 ng/mL.

Q: And the “cytotoxicity (total cell number)” value (SVG cells; CDV 0.01 to 0.1 μM)?
A: The value was “did not cause cytotoxicity at any concentration tested”.

Q: And the “cell density and viability” value (SVG cells; CDV 0.1 to 1 μM, 4 days)?
A: Its value is “did not elicit any visible changes”.

Q: What about the EC50 (Vaccinia Virus) of the same molecule?
A: The EC50 was 46 µM.

Q: What about the EC50 (Variola major) of the same molecule?
A: The EC50 was 27.3 µM.

Q: What about the IC50 (Adenovirus) of the same molecule?
A: The IC50 was 1300 nM.

Q: What about the EC50 (Adenovirus; HFF) of the same molecule?
A: The EC50 was 1300 nM.

Q: What about the EC50 (HSV-1 [2]) of the same molecule?
A: Its EC50 is 15 µM.

Q: And the AUC (PK comparison, rabbit)?
A: The AUC was 50.1 ng·h/mL.

Q: And the Cmax (PK comparison, rabbit)?
A: The Cmax was 5.44 ng/mL.

Q: What about the AUC ([3]; 0.05 mg/kg, CMX001 0.050 mg/kg) of the same molecule?
A: Its AUC is 33.3 ng·h/mL.

Q: What about the Cmax ([3]; 0.05 mg/kg, CMX001 0.050 mg/kg) of the same molecule?
A: Its Cmax is 1.51 ng/mL.

Q: What about the AUC ([3]; 0.1 mg/kg, CMX001 0.100 mg/kg) of the same molecule?
A: The AUC was 125 ng·h/mL.

Q: What about the Cmax ([3]; 0.1 mg/kg, CMX001 0.100 mg/kg) of the same molecule?
A: The Cmax was 3.44 ng/mL.

Q: What about the AUC ([3]; 0.2 mg/kg, CMX001 0.200 mg/kg) of the same molecule?
A: Its AUC is 190 ng·h/mL.

Q: And the Cmax ([3]; 0.2 mg/kg, CMX001 0.200 mg/kg)?
A: The Cmax was 5.41 ng/mL.

Q: What about the AUC ([3]; 0.4 mg/kg, CMX001 0.400 mg/kg) of the same molecule?
A: The AUC was 445 ng·h/mL.

Q: What about the Cmax ([3]; 0.4 mg/kg, CMX001 0.400 mg/kg) of the same molecule?
A: Its Cmax is 10.4 ng/mL.

Q: And the AUC ([3]; 0.6 mg/kg, CMX001 0.600 mg/kg)?
A: Its AUC is 519 ng·h/mL.

Q: And the Cmax ([3]; 0.6 mg/kg, CMX001 0.600 mg/kg)?
A: The Cmax was 12.2 ng/mL.

Q: What about the “plasma concentrations of cidofovir” value (CMV) of the same molecule?
A: The value was “below 250 ng/mL”.

Q: What about the “levels of viral transcripts” value (HCMV (AD169)) of the same molecule?
A: Its value is “Significant reductions in levels of most viral transcripts”.

Q: What about the EC50 (HHV-6) of the same molecule?
A: Its EC50 is 200 nM.

Q: What about the EC50 (EBV) of the same molecule?
A: The EC50 was over 170 µM.

Q: And the EC50 (HCMV(AD169))?
A: The EC50 was 380 nM.

Q: And the EC50 (HPV 18)?
A: The EC50 was 516 µM.

Q: And the EC50 (JC)?
A: Its EC50 is 380 nM.

Q: And the EC50 (BK Virus)?
A: Its EC50 is 115 µM.

Q: And the Cmax (PK comparison, mouse)?
A: The Cmax was “BQL-”.

Q: And the EC50 (HSV-1 [4]; Human alphaherpesvirus 1, strain E-377)?
A: Its EC50 is 5.5 ± 6 µM.

Q: What about the EC50 (HSV-1 [4]; Human alphaherpesvirus 1, strain F) of the same molecule?
A: The EC50 was 1.5 ± 0.4 µM.

Q: What about the EC50 (HSV-1 [4]; Human alphaherpesvirus 1, strain HL-3) of the same molecule?
A: Its EC50 is 3.6 ± 3 µM.

Q: And the EC50 (HPV 11)?
A: The EC50 was 716 µM.

Q: What about the “reduction in JCV DNA containing cells” value (Mad-4 JCV; CDV 0.01 to 0.1 μM, listed as CDV) of the same molecule?
A: The value was “did not elicit any significant reduction; also recorded: did not show any effect on JCV replication”.

Q: And the “copy number of JCV genomes (qPCR)” value (Mad-4 JCV; CDV, any concentration tested)?
A: The value was “had no affect”.
